Patent EP0643558B1, “SANITIZING COMPOSITIONS” (ECOLAB INC., priority 1991, dated 1992)

Experiments:
Type in all cases: cell-based
Staphylococcus aureus = assay: A.O.A.C. Sanitizing Test (Germicidal and Detergent Sanitizing Action of Disinfectants, para. 960.09); settings: use solutions, 0.1 wt-% fatty acid + 0.1 wt-% lactic acid (88% w/v) in distilled water, solution pH 2.96-2.97
From the text: (§1) A sanitizer is an agent that reduces the number of bacterial contaminants to safe levels as judged by public health requirements. Practically, a sanitizer must result in 99.999% reduction (5 log order reduction) for given organisms as defined by Germicidal and Detergent Sanitizing Action of Disinfectants, Official Methods of Analysis of the Association of Official Analytical Chemists, paragraph 960.09 and applicable sections, 15th Edition, 1990 (EPA Guideline 91-2). In common practice, substances that are applied to food contact surfaces for antimicrobial purposes must meet this requirement. It has now been discovered that a sanitizer comprising octanoic acid (C8) plus a food additive organic or inorganic acid buffer does indeed meet all of the criteria set forth for a food grade sanitizer. […] Table 1A is a summary of compositions and Table 1B is a summary of their bactericidal activity as determined by the official A.O.A.C. Sanitizing Test. (Germicidal and Detergent Sanitizing Action of Disinfectants, Official Methods of Analysis of the Association of Official Analytical Chemists, paragraph 960.09 and applicable sections, 15th Edition, 1990, EPA guideline 91-2). The octanoic acid is indeed very unique, peaking out at seven log order reductions with both a gram positive (Staphylococcus aureus) and a gram negative (Escherichia coli) bacteria and passes the test requirement for a sanitizing agent. […] Examples IA through IE represent use solutions of the sanitizers.

Escherichia coli = assay: as above; settings: use solutions, 0.1 wt-% fatty acid + 0.1 wt-% lactic acid (88% w/v) in distilled water, solution pH 2.96-2.97
From the text: as §1

Aspergillus niger = assay: Fungicidal activity, A.O.A.C. Disinfection Test Method; settings: spores of Aspergillus niger, compared with the other test organisms of Table 5B
From the text: A disinfectant is an agent that kills all vegetative cells including most recognized pathogenic microorganisms. As such, it must pass a more stringent bactericidal test; the A.O.A.C. Use Dilution Methods, Official Methods of Analysis of the Association of Official Analytical Chemists, paragraph 955.14 and applicable sections, 15th Edition, 1990 (EPA Guideline 91-2). […] Disinfection Test Method. […]

SMILES | Results Log Reductions Col. Forming Units S. aureus (Staphylococcus aureus) | Results Log Reductions Col. Forming Units E. coli (Escherichia coli) | concentration for complete kill (Aspergillus niger)
CCCCCCCCCC(=O)O [decanoic acid, reference compound] | possesses some activity | possesses some activity | –
CCCCCCCC(=O)O [octanoic acid, Octanoic acid] | seven | seven | required a higher concentration for complete kill
